Data reported in article PMC7311426, “An amphipathic peptide with antibiotic activity against multidrug-resistant Gram-negative bacteria” (Nature Communications, 2020).
≈ marks a conversion by molar mass, not a printed value. Read-outs that look alike come from different tables or passages of the source.

Experiments:
Assay in all cases: microbe, parasite or virus in culture
[1] = tested on: A. baumannii clinical isolates
How it was run: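 MIC90 from CLSI broth microdilution (M07-A9) in two clinical-isolate panels. US panel (331 isolates, 2010-2012): AA139 diluted in 0.01% acetic acid/0.1% BSA. Worldwide panel (445 isolates, 2011-2013, four regions): CAMHB, with 0.002% Tween 80 added for AA139 and polymyxin B.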

E. coli = details: Escherichia coli
How it was run: (§1)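 MICs were scored by eye after 18-20 h static incubation at 37 °C, with bacteria at 5 × 10^5 CFU mL^−1 in MHB. Peptides were serially diluted 2-fold over 12 points, top 128 or 64 μg mL^−1. CAMHB (CLSI) and 1% agarose-MHB variants were also run, at least six replicates.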

A. baumannii = details: Acinetobacter baumannii, mode of 6 replicates
How it was run: as §1

K. pneumoniae = details: Klebsiella pneumoniae
How it was run: as §1

S. enterica Typhi = details: Salmonella enterica, ATCC14028 / TYPHI, read-out: BMD MIC
How it was run: as §1

P. aeruginosa = details: Pseudomonas aeruginosa
How it was run: as §1

[2] = A. baumannii, worldwide isolates 2011-2013, n = 108

C[C@@H](O)[C@H]1C(=O)N2C(C(=O)O)=C(S[C@@H]3CN[C@H](C(=O)N(C)C)C3)[C@H](C)[C@H]12 [Meropenem, meropenem, reference compound]
Number of isolates with MIC 0.125 (MIC frequency distribution) [1]: 4 | MIC50 [1, 2]: > 16 µg/mL | MIC90 [1, 2]: > 16 µg/mL | Number of isolates with MIC 0.03 (MIC frequency distribution) ([1]; A. baumannii, worldwide isolates 2011-2013, n = 108, count of isolates at MIC 0.03): 0 | Number of isolates with MIC 0.06 (MIC frequency distribution) ([1]; A. baumannii, worldwide isolates 2011-2013, n = 108, count of isolates at MIC 0.06): 1 | Number of isolates with MIC 0.25 (MIC frequency distribution) ([1]; A. baumannii, worldwide isolates 2011-2013, n = 108, count of isolates at MIC 0.25): 10 | Number of isolates with MIC 0.5 (MIC frequency distribution) ([1]; A. baumannii, worldwide isolates 2011-2013, n = 108, count of isolates at MIC 0.5): 2 | Number of isolates with MIC 1 (MIC frequency distribution) ([1]; A. baumannii, worldwide isolates 2011-2013, n = 108, count of isolates at MIC 1): 1 | Number of isolates with MIC 2 (MIC frequency distribution) ([1]; A. baumannii, worldwide isolates 2011-2013, n = 108, count of isolates at MIC 2): 3 | Number of isolates with MIC 4 (MIC frequency distribution) ([1]; A. baumannii, worldwide isolates 2011-2013, n = 108, count of isolates at MIC 4): 2 | Number of isolates with MIC 8 (MIC frequency distribution) ([1]; A. baumannii, worldwide isolates 2011-2013, n = 108, count of isolates at MIC 8): 2 | Number of isolates with MIC 16 (MIC frequency distribution) ([1]; A. baumannii, worldwide isolates 2011-2013, n = 108, count of isolates at MIC 16): 1 | Number of isolates with MIC 32 (MIC frequency distribution) ([1]; A. baumannii, worldwide isolates 2011-2013, n = 108, count of isolates at MIC 32): 0 | Number of isolates with MIC 64 (MIC frequency distribution) ([1]; A. baumannii, worldwide isolates 2011-2013, n = 108, count of isolates at MIC 64): 0 | Number of isolates with MIC 128 (MIC frequency distribution) ([1]; A. baumannii, worldwide isolates 2011-2013, n = 108, count of isolates at MIC 128): 0 | Number of isolates with MIC >16 (MIC frequency distribution) ([1]; A. baumannii, worldwide isolates 2011-2013, n = 108, count of isolates at MIC >16): 82 | Number of isolates with MIC >32 (MIC frequency distribution) ([1]; A. baumannii, worldwide isolates 2011-2013, n = 108, count of isolates at MIC >32): 0 | Number of isolates with MIC >128 (MIC frequency distribution) ([1]; A. baumannii, worldwide isolates 2011-2013, n = 108, count of isolates at MIC >128): 0 | Number of isolates with MIC ≤0.015 (MIC frequency distribution) ([1]; A. baumannii, worldwide isolates 2011-2013, n = 108, count of isolates at MIC ≤0.015): 0 | MIC90 ([1]; Acinetobacter baumannii): > 16 µg/mL | MIC90 ([1]; US isolates 2010–2012, A. baumannii MDR, n = 19): >16 µg/mL | MIC90 ([1]; US isolates 2010–2012, A. baumannii XDR, n = 31): >16 µg/mL | MIC (E. coli; ATCC25922, read-out: BMD MIC, E. coli ATCC 25922 FDA control strain, CAMHB, mode of 6 replicates): ≤ 0.06 µg/mL | MIC (E. coli; ATCC25922, read-out: BMD MIC, E. coli ATCC 25922 FDA control strain, MHB, mode of 6 independent biological replicates): 0.015 µg/mL (≈ 0.0391 µM) | MIC (E. coli; ATCC700926 / MG1655, read-out: BMD MIC): ≤ 0.03 µg/mL | MIC (E. coli; ATCC700928, read-out: BMD MIC, E. coli ATCC 700928 CFT073 UPEC, CAMHB, mode of 6 replicates): ≤ 0.25 µg/mL | MIC (E. coli; read-out: BMD MIC): ≤ 0.25 µg/mL | MIC (E. coli; read-out: MIC against E. coli AID#172 MDR clinical isolate, BMD): 0.125 µg/mL (≈ 0.326 µM) | MIC (E. coli; read-out: MIC against ESBL producing E. coli DSA 443, BMD): 0.032 µg/mL (≈ 0.0834 µM) | MIC (E. coli; read-out: MIC, broth microdilution, E. coli AUD172 parent strain not exposed to drug): 0.015 µg/mL (≈ 0.0391 µM) | MIC (E. coli; read-out: MIC, broth microdilution, E. coli AUD172 spontaneous mutant, AA139 selection 4X, plate 2, colony 2, drug-free passage 1): 0.015 µg/mL (≈ 0.0391 µM) | MIC (E. coli; read-out: MIC, broth microdilution, E. coli AUD172 spontaneous mutant, AA139 selection 4X, plate 2, colony 2, drug-free passage 5): 0.03 µg/mL (≈ 0.0782 µM) | MIC (A. baumannii; ATCC19636, read-out: BMD MIC, A. baumannii ATCC 19636 type strain, CAMHB): 1 µg/mL (≈ 2.61 µM) | MIC (A. baumannii; ATCC19636, read-out: BMD MIC, A. baumannii ATCC 19636 type strain, MHB): 0.5 µg/mL (≈ 1.3 µM) | MIC (A. baumannii; read-out: BMD MIC, A. baumannii Greece CI, XDR, PmxR, MHB): > 16 µg/mL | MIC (K. pneumoniae; ATCC13883, read-out: BMD MIC, K. pneumoniae ATCC 13883 type strain (polymyxin/colistin heteroresistant), MHB, mode of 6 replicates): ≤ 0.25 µg/mL | MIC (K. pneumoniae; ATCC700603, read-out: BMD MIC, K. pneumoniae ATCC 700603 (K6), MDR, OXA-2/SHV-18, CAMHB, mode of 6 replicates): 0.06 µg/mL (≈ 0.156 µM) | MIC (K. pneumoniae; ATCC700603, read-out: BMD MIC, K. pneumoniae ATCC 700603 (K6), MDR, OXA-2/SHV-18, MHB, mode of 6 replicates): ≤ 0.25 µg/mL | MIC (K. pneumoniae; BAA2146, read-out: BMD MIC, K. pneumoniae BAA-2146, MDR, ESBL, NDM-1 pos, MHB, mode of 6 replicates): > 32 µg/mL | MIC (K. pneumoniae; read-out: BMD MIC, K. pneumoniae Greece CI 8_GR_13, XDR, KPC-2, PmxR, MHB, mode of 6 replicates): > 32 µg/mL | MIC (K. pneumoniae; read-out: MIC, broth microdilution, K. pneumoniae 3010 spontaneous mutant, AA139 selection 4X, plate 1, colony 1, drug-free passage 1): 0.03 µg/mL (≈ 0.0782 µM) | MIC (K. pneumoniae; read-out: MIC, broth microdilution, K. pneumoniae 3010 spontaneous mutant, AA139 selection 4X, plate 1, colony 1, drug-free passage 5): 0.015 µg/mL (≈ 0.0391 µM) | MIC (K. pneumoniae; read-out: MIC, broth microdilution, K. pneumoniae 3010 spontaneous mutant, AA139 selection 8X, plate 1, colony 1, drug-free passage 1): 0.03 µg/mL (≈ 0.0782 µM) | MIC (K. pneumoniae; read-out: MIC, broth microdilution, K. pneumoniae 3010 spontaneous mutant, AA139 selection 8X, plate 1, colony 1, drug-free passage 5): 0.03 µg/mL (≈ 0.0782 µM) | MIC (K. pneumoniae; read-out: MIC, broth microdilution, K. pneumoniae ST258 spontaneous mutant, AA139 selection 4X, plate 1, colony 1, drug-free passage 1): > 4 µg/mL | MIC (K. pneumoniae; read-out: MIC, broth microdilution, K. pneumoniae ST258 spontaneous mutant, AA139 selection 4X, plate 1, colony 1, drug-free passage 5): > 4 µg/mL | MIC (S. enterica Typhi): 0.125 µg/mL (≈ 0.326 µM) | MIC (P. aeruginosa; ATCC27853, read-out: BMD MIC, P. aeruginosa ATCC 27853 control strain, CAMHB, mode of 6 replicates): ≤ 0.25 µg/mL | MIC (P. aeruginosa; ATCC27853, read-out: MIC, broth microdilution, P. aeruginosa ATCC 27853 spontaneous mutant, AA139 selection 4X, plate 1, colony 1, drug-free passage 1): 0.25 µg/mL (≈ 0.652 µM) | MIC (P. aeruginosa; ATCC27853, read-out: MIC, broth microdilution, P. aeruginosa ATCC 27853 spontaneous mutant, AA139 selection 4X, plate 1, colony 1, drug-free passage 5): 0.5 µg/mL (≈ 1.3 µM) | MIC (P. aeruginosa; ATCC27853, read-out: MIC, broth microdilution, P. aeruginosa ATCC 27853 spontaneous mutant, AA139 selection 4X, plate 1, colony 2, drug-free passage 1): 0.5 µg/mL (≈ 1.3 µM) | MIC (P. aeruginosa; ATCC27853, read-out: MIC, broth microdilution, P. aeruginosa ATCC 27853 spontaneous mutant, AA139 selection 4X, plate 1, colony 2, drug-free passage 5): 0.25 µg/mL (≈ 0.652 µM) | MIC (P. aeruginosa; ATCC27853, read-out: MIC, broth microdilution, P. aeruginosa ATCC 27853 spontaneous mutant, AA139 selection 4X, plate 1, colony 3, drug-free passage 1): 1 µg/mL (≈ 2.61 µM) | MIC (P. aeruginosa; ATCC27853, read-out: MIC, broth microdilution, P. aeruginosa ATCC 27853 spontaneous mutant, AA139 selection 4X, plate 1, colony 3, drug-free passage 5): 0.5 µg/mL (≈ 1.3 µM) | MIC (P. aeruginosa; ATCC27853, read-out: MIC, broth microdilution, P. aeruginosa ATCC 27853 spontaneous mutant, AA139 selection 4X, plate 1, colony 4, drug-free passage 1): 1 µg/mL (≈ 2.61 µM) | MIC (P. aeruginosa; ATCC27853, read-out: MIC, broth microdilution, P. aeruginosa ATCC 27853 spontaneous mutant, AA139 selection 4X, plate 1, colony 4, drug-free passage 5): 0.5 µg/mL (≈ 1.3 µM) | MIC (P. aeruginosa; ATCC27853, read-out: MIC, broth microdilution, P. aeruginosa ATCC 27853 spontaneous mutant, AA139 selection 4X, plate 1, colony 5, drug-free passage 1): 0.25 µg/mL (≈ 0.652 µM) | MIC (P. aeruginosa; ATCC27853, read-out: MIC, broth microdilution, P. aeruginosa ATCC 27853 spontaneous mutant, AA139 selection 4X, plate 1, colony 5, drug-free passage 5): 0.5 µg/mL (≈ 1.3 µM) | MIC (P. aeruginosa; ATCC27853, read-out: MIC, broth microdilution, P. aeruginosa ATCC 27853 spontaneous mutant, AA139 selection 4X, plate 1, colony 6, drug-free passage 1): 0.5 µg/mL (≈ 1.3 µM) | MIC (P. aeruginosa; ATCC27853, read-out: MIC, broth microdilution, P. aeruginosa ATCC 27853 spontaneous mutant, AA139 selection 4X, plate 1, colony 6, drug-free passage 5): 0.5 µg/mL (≈ 1.3 µM) | MIC (P. aeruginosa; ATCC27853, read-out: MIC, broth microdilution, P. aeruginosa ATCC 27853 spontaneous mutant, AA139 selection 4X, plate 2, colony 1, drug-free passage 1): 0.25 µg/mL (≈ 0.652 µM)
